The record followed here is patent publication US20030022820A1, “IN VIVO ACTIVATION OF TUMOR-SPECIFIC CYTOTOXIC T CELLS” (priority 1995, published 2003).

This assay addresses A2.1/K^b on EA2 target cells (UniProt P01901+P04439, D140Y/D185E/D98H/E176V/G131W/I119V/I121R/I166T/N151K/N90K/Q86G/Q94H/R138H/R169H). Format: binding, chimeric human-mouse.

For “ILKEPVHGV [HIV-1 RT: 476-484, reference compound]”, the “binding to A2.1/K^b (percent specific lysis of EA2/K^b targets, FIG. 1), in words” value is reported as “efficiently bound to A2.1/K^b”.

Take ILLVVVLGV [Peptide H9]: the “inhibition of binding of the influenza A-derived peptide to A2.1/K^b (FIG. 5), in words” value is recorded as “highest efficiency”.
